pIC50, pKi: −log10 of the molar value. Structures can show the parent of a compound that is named as a salt.
Assays:
memapsin 2 = memapsin 2 (Homo sapiens, UniProt P56817); experiment: Inhibition of memapsin 2 catalytic activity (Ki); assay type: biochemical; conditions: memapsin 2, pH 4, 37° C.; read-out: M2K
Procedure: Potency of compounds were determined by measurement of their inhibition of memapsin 2 catalytic activity toward a fluorescent substrate. […] Briefly, assays were performed at pH 4, 37° C., by pre-incubation of memapsin 2 enzyme with compound for 20 minutes. Activity measure was initiated by addition of a fluorogenic substrate FS-2 (Bachem Americas, Torrance, Calif.). Fluorescent signal increase over time was measured as a rate of hydrolysis of the peptide substrate. […]

[1] = system: Aβ production in Chinese hamster ovary cells that over-express human APP695 with the London and Swedish mutations; experiment: Cellular Aβ IC50 determination (Aβ40 sandwich ELISA); conditions: Cricetulus griseus, CHO, 24 h, read-out: Cell, Aβ40, CHO cells over-expressing human APP695 (London and Swedish mutations), 24 h
Procedure: The potency of compounds against memapsin 2 catalytic activity was determined in a cellular assay of Aβ production. […] Compounds are dissolved in DMSO to concentrations near 1 mM, and diluted into culture media to a final concentration near 4 μM (final 0.4% DMSO). Compounds were diluted serially and applied to cells in multi-well plates 48 h after seeding. Incubation was continued in 5% CO2 at 37 degrees C. for 24 h. Aliquots were removed and assayed for Aβ40 content using a sandwich ELISA (BioSource International). Amount of Aβ40 over the range of concentration of compounds, relative to control incubations, were fit to a 4-parameter IC50 model.

Chain of memapsin 2 (P56817 46-501): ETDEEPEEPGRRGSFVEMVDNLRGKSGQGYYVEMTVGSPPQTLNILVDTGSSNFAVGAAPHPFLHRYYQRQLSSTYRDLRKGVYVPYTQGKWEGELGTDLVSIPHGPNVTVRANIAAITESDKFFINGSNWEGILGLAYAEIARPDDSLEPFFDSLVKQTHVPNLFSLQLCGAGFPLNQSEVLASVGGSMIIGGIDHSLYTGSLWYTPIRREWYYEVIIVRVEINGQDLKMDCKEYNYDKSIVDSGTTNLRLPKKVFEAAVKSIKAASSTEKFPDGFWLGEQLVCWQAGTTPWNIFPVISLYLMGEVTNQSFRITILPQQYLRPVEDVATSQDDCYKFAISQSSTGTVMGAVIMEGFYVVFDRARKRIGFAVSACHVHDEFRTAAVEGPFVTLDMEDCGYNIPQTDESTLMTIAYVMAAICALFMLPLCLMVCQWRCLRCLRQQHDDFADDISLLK

| Structure (SMILES) | pKi (memapsin 2) | pIC50 [1] |
| --- | --- | --- |
| Cc1csc(CN(C)C(=O)c2cccc(C(=O)NC(Cc3ccccc3)C(O)CNCc3cccc(OC(F)F)c3)c2)n1 (centres unmarked) [N1-(4-(3-(difluoromethoxy)benzylamino)-3-hydroxy-1-phenylbutan-2-yl)-N3-methyl-N3-((4-methylthiazol-2-yl)methyl)isophthalamide] | > 6.52 | > 6.00 |
| COc1cc(CCCNCC(O)C(Cc2ccccc2)NC(=O)c2cc(C(=O)NC(C)c3ccccc3)cc(N(C)S(C)(=O)=O)c2)ccc1C (centres unmarked) [N1-(3-hydroxy-4-(3-(3-methoxy-4-methylphenyl)propylamino)-1-phenylbutan-2-yl)-5-(N-methylmethylsulfonamido)-N3-(1-phenylethyl)isophthalamide] | > 6.52 | 5.30 to 6.00 |
| COc1cccc(CNCC(O)C(Cc2ccccc2OC)NC(=O)c2cc(C(=O)NC(C)c3ccccc3)cc(N(C)S(C)(=O)=O)c2)c1 (centres unmarked) [N1-(3-hydroxy-4-(3-methoxybenzylamino)-1-(2-methoxyphenyl)butan-2-yl)-5-(N-methylmethylsulfonamido)-N3-(1-phenylethyl)isophthalamide] | 6.30 to 6.52 | < 5.30 |
| COc1cccc(CNCC(O)C(Cc2ccccc2)NC(=O)c2cc(C(=O)NC(C)c3nc(C)co3)cc(N(C)S(C)(=O)=O)c2)c1 (centres unmarked) [N1-(3-hydroxy-4-(3-methoxybenzylamino)-1-phenylbutan-2-yl)-5-(N-methylmethylsulfonamido)-N3-(1-(4-methyloxazol-2-yl)ethyl)isophthalamide] | > 6.52 | > 6.00 |
| Cc1cc(C(C)NCC(O)C(Cc2ccccc2)NC(=O)c2cc(C(=O)NC(C)c3ccccc3)cc(N(C)S(C)(=O)=O)c2)on1 (centres unmarked) [N1-(3-hydroxy-4-(1-(3-methylisoxazol-5-yl)ethylamino)-1-phenylbutan-2-yl)-5-(N-methylmethylsulfonamido)-N3-(1-phenylethyl)isophthalamide] | > 6.52 | > 6.00 |
| CCOc1cccc(CNCC(O)C(Cc2ccccc2)NC(=O)c2cc(C(=O)NC(C)c3ccccc3)cc(N(C)S(C)(=O)=O)c2)c1 (centres unmarked) [N1-(4-(3-ethoxybenzylamino)-3-hydroxy-1-phenylbutan-2-yl)-5-(N-methylmethylsulfonamido)-N3-(1-phenylethyl)isophthalamide] | > 6.52 | > 6.00 |
| CCOc1cncc(CNCC(O)C(Cc2ccccc2)NC(=O)c2cc(C(=O)NC(C)c3ccccc3)cc(N(C)S(C)(=O)=O)c2)c1 (centres unmarked) [N1-(4-((5-ethoxypyridin-3-yl)methylamino)-3-hydroxy-1-phenylbutan-2-yl)-5-(N-methylmethylsulfonamido)-N3-(1-phenylethyl)isophthalamide] | > 6.52 | > 6.00 |
| COc1ccccc1CNCC(O)C(Cc1ccccc1)NC(=O)c1cccc(C(=O)N(C)Cc2nc(C)cs2)c1 (centres unmarked) [N1-(3-hydroxy-4-(2-methoxybenzylamino)-1-phenylbutan-2-yl)-N3-methyl-N3-((4-methylthiazol-2-yl)methyl)isophthalamide] | < 6.30 | 5.30 to 6.00 |
| Cc1csc(CN(C)C(=O)c2cccc(C(=O)NC(Cc3ccccc3)C(O)CNCc3cncc(CC(C)C)c3)c2)n1 (centres unmarked) [N1-(3-hydroxy-4-((5-isobutylpyridin-3-yl)methylamino)-1-phenylbutan-2-yl)-N3-methyl-N3-((4-methylthiazol-2-yl)methyl)isophthalamide] | > 6.52 | > 6.00 |
| COc1cccc(CNCC(O)C(Cc2cc(F)cc(F)c2)NC(=O)c2cccc(C(=O)N(C)Cc3nc(C)cs3)c2)c1 (centres unmarked) [N1-(1-(3,5-difluorophenyl)-3-hydroxy-4-(3-methoxybenzylamino)butan-2-yl)-N3-methyl-N3-((4-methylthiazol-2-yl)methyl)isophthalamide] | > 6.52 | > 6.00 |
| COc1ccccc1CCNCC(O)C(Cc1ccccc1)NC(=O)c1cccc(C(=O)N(C)Cc2nc(C)cs2)c1 (centres unmarked) [N1-(3-hydroxy-4-(2-methoxyphenethylamino)-1-phenylbutan-2-yl)-N3-methyl-N3-((4-methylthiazol-2-yl)methyl)isophthalamide] | < 6.30 | 5.30 to 6.00 |
| Cc1csc(CN(C)C(=O)c2cccc(C(=O)NC(Cc3ccccc3)C(O)CNCc3cncc(OC(C)C)c3)c2)n1 (centres unmarked) [N1-(3-hydroxy-4-((5-isopropoxypyridin-3-yl)methylamino)-1-phenylbutan-2-yl)-N3-methyl-N3-((4-methylthiazol-2-yl)methyl)isophthalamide] | > 6.52 | > 6.00 |
| COc1cccc(CNCC(O)C(Cc2ccccc2)NC(=O)c2cccc(C(=O)N(Cc3nc(C)cs3)C(C)C)c2)c1 (centres unmarked) [N1-(3-hydroxy-4-(3-methoxybenzylamino)-1-phenylbutan-2-yl)-N3-isopropyl-N3-((4-methylthiazol-2-yl)methyl)isophthalamide] | > 6.52 | > 6.00 |
| COc1cccc(CNCC(O)C(Cc2ccccc2)NC(=O)c2cc(C(=O)NCc3nc(CO)co3)cc(N(C)S(C)(=O)=O)c2)c1 (centres unmarked) [N1-(3-hydroxy-4-(3-methoxybenzylamino)-1-phenylbutan-2-yl)-N3-((4-(hydroxymethyl)oxazol-2-yl)methyl)-5-(N-methylmethylsulfonamido)isophthalamide] | 6.30 to 6.52 | < 5.30 |
| COc1cccc(CNCC(O)C(Cc2ccccc2)NC(=O)c2cccc(C(=O)N(C)Cc3nc(C)oc3C)c2)c1 (centres unmarked) [N1-((2,5-dimethyloxazol-4-yl)methyl)-N3-(3-hydroxy-4-(3-methoxybenzylamino)-1-phenylbutan-2-yl)-N1-methylisophthalamide] | > 6.52 | > 6.00 |
| COc1ccc(CCNCC(O)C(Cc2ccccc2)NC(=O)c2cccc(C(=O)N(C)Cc3nc(C)cs3)c2)cc1 (centres unmarked) [N1-(3-hydroxy-4-(4-methoxyphenethylamino)-1-phenylbutan-2-yl)-N3-methyl-N3-((4-methylthiazol-2-yl)methyl)isophthalamide] | < 6.30 | 5.30 to 6.00 |
| CC(NC(=O)c1cc(C(=O)NC(Cc2ccccc2)C(O)CNC(CO)c2ccccc2)cc(N(C)S(C)(=O)=O)c1)c1ccccc1 (centres unmarked) [N1-(3-hydroxy-4-(2-hydroxy-1-phenylethylamino)-1-phenylbutan-2-yl)-5-(N-methylmethylsulfonamido)-N3-(1-phenylethyl)isophthalamide] | > 6.52 | > 6.00 |
| COc1cccc(CNCC(O)C(Cc2ccccc2)NC(=O)c2cccc(C(=O)N(C)Cc3csc(C)n3)c2)c1 (centres unmarked) [N1-(3-hydroxy-4-(3-methoxybenzylamino)-1-phenylbutan-2-yl)-N3-methyl-N3-((2-methylthiazol-4-yl)methyl)isophthalamide] | > 6.52 | > 6.00 |
| CCc1csc(CN(C)C(=O)c2cccc(C(=O)NC(Cc3ccccc3)C(O)CNCc3cccc(OC)c3)c2)n1 (centres unmarked) [N1-((4-ethylthiazol-2-yl)methyl)-N3-(3-hydroxy-4-(3-methoxybenzylamino)-1-phenylbutan-2-yl)-N1-methylisophthalamide] | > 6.52 | > 6.00 |
| COc1ccc(CCNCC(O)C(Cc2ccccc2)NC(=O)c2cc(C(=O)NC(C)c3ccccc3)cc(N(C)S(C)(=O)=O)c2)cc1OC (centres unmarked) [N1-(4-(3,4-dimethoxyphenethylamino)-3-hydroxy-1-phenylbutan-2-yl)-5-(N-methylmethylsulfonamido)-N3-(1-phenylethyl)isophthalamide] | > 6.52 | > 6.00 |
| Cc1csc(CN(C)C(=O)c2cccc(C(=O)NC(Cc3ccccc3)C(O)CNCc3cccc(CC(C)C)c3)c2)n1 (centres unmarked) [N1-(3-hydroxy-4-(3-isobutylbenzylamino)-1-phenylbutan-2-yl)-N3-methyl-N3-((4-methylthiazol-2-yl)methyl)isophthalamide] | > 6.52 | > 6.00 |
| COc1cccc(CN(CC(O)C(Cc2ccccc2)NC(=O)c2cc(C(=O)NC(C)c3ccccc3)cc(N(C)S(C)(=O)=O)c2)C(=O)CN(C)C)c1 (centres unmarked) [N1-(4-(2-(dimethylamino)-N-(3-methoxybenzyl)acetamido)-3-hydroxy-1-phenylbutan-2-yl)-5-(N-methylmethylsulfonamido)-N3-(1-phenylethyl)isophthalamide] |  | 5.30 to 6.00 |
| CC(C)CN1CCC(CNCC(O)C(Cc2ccccc2)NC(=O)c2cc(C(=O)NC(C)c3ccccc3)cc(N(C)S(C)(=O)=O)c2)CC1 (centres unmarked) [N1-(3-hydroxy-4-((1-isobutylpiperidin-4-yl)methylamino)-1-phenylbutan-2-yl)-5-(N-methylmethylsulfonamido)-N3-(1-phenylethyl)isophthalamide dihydrochloride] |  | < 5.30 |
| COc1cccc(CN(CC(O)C(Cc2ccccc2)NC(=O)c2cc(C(=O)NC(C)c3ccccc3)cc(N(C)S(C)(=O)=O)c2)C(=O)CCC(=O)NCCN2CCOCC2)c1 (centres unmarked) [N1-(3-hydroxy-4-(N-(3-methoxybenzyl)-4-(2-morpholinoethylamino)-4-oxobutanamido)-1-phenylbutan-2-yl)-5-(N-methylmethylsulfonamido)-N3-(1-phenylethyl)isophthalamide] |  | 5.30 to 6.00 |
| COc1cccc(CNCC(O)C(Cc2ccccc2)NC(=O)c2cc(C(=O)NC(C)c3nc(C)cs3)cc(N(C)S(C)(=O)=O)c2)c1 (centres unmarked) [N1-(3-hydroxy-4-(3-methoxybenzylamino)-1-phenylbutan-2-yl)-5-(N-methylmethylsulfonamido)-N3-(1-(4-methylthiazol-2-yl)ethyl)isophthalamide] |  | > 6.00 |
| COc1cccc(CN(CC(O)C(Cc2ccccc2)NC(=O)c2cc(C(=O)NC(C)c3ccccc3)cc(N(C)S(C)(=O)=O)c2)C(=O)CCC(=O)OCC(O)C2OC(=O)C(O)=C2O)c1 (centres unmarked) [2-(3,4-dihydroxy-5-oxo-2,5-dihydrofuran-2-yl)-2-hydroxyethyl 4-((2-hydroxy-3-(3-(N-methylmethylsulfonamido)-5-(1-phenylethylcarbamoyl)benzamido)-4-phenylbutyl)(3-methoxybenzyl)amino)-4-oxobutanoate] |  | 5.30 to 6.00 |
